Read-outs that look alike come from different tables or passages of the source.
Columns and labels:
[1] = system: Key Broadleaf Weed and Crop Species; test: Post-emergent Test II herbicidal activity (Table 5); assay type: in vivo; conditions: post-emergence, 336 h, 14 days after application; for pest or weed control at 70 g/ha: application rate 70 g ai/ha; for pest or weed control at 140 g/ha: application rate 140 g ai/ha
Procedure, shortened: (§1)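 Plants grown in Metro-Mix 360 (pH 6.0–6.8) in a greenhouse (~15 h photoperiod, 23–29 °C day) to first or second true leaf stage, then sprayed with compound in acetone/DMSO/aqueous crop-oil-surfactant carrier at 187 L/ha by track sprayer. Injury visually scored 0–100% versus untreated plants after 14 d.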

[2] = system: Key Grass and Sedge Weeds as well as Grass Crops; test: Post-emergent Test II herbicidal activity (Table 6); assay type: in vivo; conditions: post-emergence, 336 h; for pest or weed control at 70 g/ha: 70 g ai/ha; for pest or weed control at 140 g/ha: 140 g ai/ha
Procedure, shortened: as §1

[3] = ABUTH: velvetleaf (Abutilon theophrasti), read-out: Visual Growth Reduction (%) 14 Days After Application, ABUTH
[4] = AMARE: redroot pigweed (Amaranthus retroflexus), read-out: Visual Growth Reduction (%) 14 Days After Application, AMARE
[5] = BRSNN: oilseed-rape, canola (Brassica napus), read-out: Visual Growth Reduction (%) 14 Days After Application, BRSNN
[6] = CHEAL: lambsquarters (Chenopodium album), read-out: Visual Growth Reduction (%) 14 Days After Application, CHEAL
[7] = EPHHL: wild poinsettia (Euphorbia heterophylla), read-out: Visual Growth Reduction (%) 14 Days After Application, EPHHL
[8] = HELAN: sunflower (Helianthus annuus), read-out: Visual Growth Reduction (%) 14 Days After Application, HELAN
[9] = VIOTR: wild pansy (Viola tricolor), read-out: Visual Growth Reduction (%) 14 Days After Application, VIOTR
[10] = CYPES: yellow nutsedge (Cyperus esculentus), read-out: Visual Growth Reduction (%) 14 Days After Application, CYPES
[11] = DIGSA: crabgrass (Digitaria sanguinalis), read-out: Visual Growth Reduction (%) 14 Days After Application, DIGSA
[12] = ECHCG: barnyardgrass (Echinochloa crus-galli), read-out: Visual Growth Reduction (%) 14 Days After Application, ECHCG
[13] = ORYSA: rice (Oryza sativa), crop, read-out: Visual Growth Reduction (%) 14 Days After Application, ORYSA
[14] = SETFA: giant foxtail (Setaria faberi), read-out: Visual Growth Reduction (%) 14 Days After Application, SETFA
[15] = SORVU: grain sorghum (Sorghum vulgare), read-out: Visual Growth Reduction (%) 14 Days After Application, SORVU
[16] = TRZSS (wheat, Triticum aestivum), crop, read-out: Visual Growth Reduction (%) 14 Days After Application, TRZSS
[17] = ZEAMX: maize, corn (Zea mays), crop, read-out: Visual Growth Reduction (%) 14 Days After Application, ZEAMX

In the case of `COC(=O)c1nc(-c2ccc(F)cc2)c(F)c(N)c1Cl` [Compound 204], the pest or weed control at 70 g/ha [1, 3] is reported as 95 to 100%, the pest or weed control at 140 g/ha [1, 3] is reported as 95 to 100% and the pest or weed control at 70 g/ha [1, 4] is reported as 95 to 100%. For the same molecule, the pest or weed control at 140 g/ha [1, 4] was 95 to 100%, the pest or weed control at 70 g/ha [1, 5] was 85 to 94% and the pest or weed control at 140 g/ha [1, 5] was 95 to 100%. For the same molecule, the pest or weed control at 70 g/ha [1, 6] was 95 to 100%, the pest or weed control at 140 g/ha [1, 6] was 95 to 100% and the pest or weed control at 70 g/ha [1, 7] was 95 to 100%. For the same molecule, the pest or weed control at 140 g/ha [1, 7] was 95 to 100%, the pest or weed control at 70 g/ha [1, 8] was 95 to 100% and the pest or weed control at 140 g/ha [1, 8] was 95 to 100%. It also gave a pest or weed control at 70 g/ha [1, 9] of 75 to 84%, a pest or weed control at 140 g/ha [1, 9] of 95 to 100% and a pest or weed control at 70 g/ha [2, 10] of 85 to 94%. It also gave a pest or weed control at 140 g/ha [2, 10] of 85 to 94%, a pest or weed control at 70 g/ha [2, 11] of 60 to 74% and a pest or weed control at 140 g/ha [2, 11] of 60 to 74%. The pest or weed control at 70 g/ha [2, 12] was 95 to 100%, the pest or weed control at 140 g/ha [2, 12] was 95 to 100% and the pest or weed control at 70 g/ha [2, 13] was 0 to 29%. It also gave a pest or weed control at 140 g/ha [2, 13] of 0 to 29%, a pest or weed control at 70 g/ha [2, 14] of 0 to 29% and a pest or weed control at 140 g/ha [2, 14] of 45 to 59%. It also gave a pest or weed control at 70 g/ha [2, 15] of 75 to 84%, a pest or weed control at 140 g/ha [2, 15] of 85 to 94% and a pest or weed control at 70 g/ha [2, 16] of 45 to 59%. It also gave a pest or weed control at 140 g/ha [2, 16] of 60 to 74%, a pest or weed control at 70 g/ha [2, 17] of 75 to 84% and a pest or weed control at 140 g/ha [2, 17] of 75 to 84%. For the same molecule, the melting point was 131 °C.
